Experimental data reported in patent US12220421B2, “Inhibitors of C. difficile spore germination” (THE BOARDS OF REGENTS OF THE NEVADA SYSTEM OF HIGHER …, priority 2021, dated 2025).
Entries after “also recorded” stand apart in the source; their conditions may differ. Like-named read-outs stand apart in the source and are kept apart here.

Key:
[1] = biological target: C. difficile spore germination; settings: literature values; read-out: Ki, inhibition of germination; cited from earlier work
C. difficile 630 strain [2] = settings: literature, cited from earlier work; for IC50: read-out: IC50 against 630 strain
[3] = tested on: C. difficile R20291 spores; settings: literature, cited from earlier work
[4] = Incubation with feces / murine microbiota (degradation); format: in vitro ADME; settings: 3 days incubation with feces
[5] = tested on: C. difficile R20291 spores; assay: C. difficile spore germination assay (optical density, OD580); settings: 6 mM taurocholate, 12 mM glycine; for IC50 / activity at 125 µM: Clostridioides difficile, R20291SPORES; for activity at 125 µM / % Germination (125 μM): compound 125 μM
C. difficile 630 strain [6] = assay: Spore germination inhibition against C. difficile 630 strain (literature); format: cell-based
[7] = read-out: % Germination (125 μM), Table 5, 100% indicates no inhibition
[8] = Table 5, 100% indicates no inhibition

**Q.** For `C[C@H](CCC(=O)Nc1cccc(S(=O)(=O)O)c1)[C@H]1CC[C@H]2[C@@H]3[C@H](O)C[C@@H]4C[C@H](O)CC[C@]4(C)[C@H]3C[C@H](O)[C@]12C` [CamSA], which Ki [1] is on record?
**A.** 50 µM

**Q.** And the IC50 (C. difficile 630 strain [2])?
**A.** 58 µM

**Q.** And the “Activity against 630 strain” value (C. difficile 630 strain [2])?
**A.** active

**Q.** What about the “Activity against R20291 strain” value ([3]; hypervirulent R20291 strain) of the same compound?
**A.** no inhibitory or prophylactic activity; also recorded: inactive

**Q.** Which “Degradation on incubation with feces” value [4] does the source give for `C[C@H](CCc1ncc2ccccc2n1)[C@H]1CC[C@H]2[C@@H]3[C@H](O)C[C@@H]4C[C@H](O)CC[C@]4(C)[C@H]3C[C@H](O)[C@]12C` [Compound 29] here?
**A.** not degraded

**Q.** What about the IC50 ([5]; Table 3) of the same compound?
**A.** 22 ± 3 µM

**Q.** What about the activity at 125 µM ([5]; read-out: % Germination, Table 3, ± standard deviation) of the same compound?
**A.** 17 ± 3%

**Q.** Which “Activity against 630 strain” value (C. difficile 630 strain [2]) does the source give for `C[C@H](CCC(=O)Nc1ccccc1)[C@H]1CC[C@H]2[C@@H]3[C@H](O)C[C@@H]4C[C@H](O)CC[C@]4(C)[C@H]3CC[C@]12C` [Compound 53] here?
**A.** inactive up to the maximum tested concentration

**Q.** What about the IC50 ([5]; Table 5) of the same compound?
**A.** 4 ± 0.5 µM

**Q.** What about the activity at 125 µM [5, 7] of the same compound?
**A.** 14 ± 0.6%

**Q.** With `Cc1ccc(F)cc1NC(=O)CC[C@@H](C)[C@H]1CC[C@H]2[C@@H]3[C@H](O)C[C@@H]4C[C@H](O)CC[C@]4(C)[C@H]3CC[C@]12C` [Compound 56] as the compound, how does the activity at 125 µM [5, 7] read?
**A.** 66 ± 6%

**Q.** With `C[C@H](CCC(=O)Nc1ccccc1)[C@H]1CC[C@H]2[C@@H]3CC[C@@H]4C[C@H](O)CC[C@]4(C)[C@H]3C[C@H](O)[C@]12C` [Compound 57] as the compound, how does the IC50 ([5]; Table 5) read?
**A.** 1.3 ± 0.1 µM

**Q.** What about the activity at 125 µM [5, 7] of the same compound?
**A.** 3 ± 0.2%

**Q.** Which results are given for `COc1ccccc1NC(=O)CC[C@@H](C)[C@H]1CC[C@H]2[C@@H]3CC[C@@H]4C[C@H](O)CC[C@]4(C)[C@H]3CC[C@]12C` [Compound 58]?
**A.** IC50 ([5]; Table 5): 2.4 ± 0.3 µM; % Germination (125 μM) [5, 8]: 0.4 ± 3%

**Q.** For `C[C@H](CCC(=O)Nc1cccc(F)c1)[C@H]1CC[C@H]2[C@@H]3CC[C@@H]4C[C@H](O)CC[C@]4(C)[C@H]3C[C@H](O)[C@]12C` [Compound 59], which activity at 125 µM [5, 7] is on record?
**A.** 59 ± 5%

**Q.** With `Cc1ccc(F)cc1NC(=O)CC[C@@H](C)[C@H]1CC[C@H]2[C@@H]3CC[C@@H]4C[C@H](O)CC[C@]4(C)[C@H]3C[C@H](O)[C@]12C` [Compound 60] as the compound, how does the activity at 125 µM [5, 7] read?
**A.** 65 ± 0.9%

**Q.** With `C[C@H](CCC(=O)Nc1ccccc1)[C@H]1CC[C@H]2[C@@H]3CC[C@@H]4C[C@H](O)CC[C@]4(C)[C@H]3CC[C@]12C` [Compound 61] as the compound, how does the activity at 125 µM [5, 7] read?
**A.** 100%

**Q.** With `COc1ccccc1NC(=O)CC[C@@H](C)[C@H]1CC[C@H]2[C@@H]3CC[C@@H]4C[C@H](O)CC[C@]4(C)[C@H]3CC[C@]12C` [Compound 62] as the compound, how does the “% Germination (125 μM)” value [5, 8] read?
**A.** 100%

**Q.** For `C[C@H](CCC(=O)Nc1cccc(F)c1)[C@H]1CC[C@H]2[C@@H]3CC[C@@H]4C[C@H](O)CC[C@]4(C)[C@H]3CC[C@]12C` [Compound 63], which activity at 125 µM [5, 7] is on record?
**A.** 100%

**Q.** With `Cc1ccc(F)cc1NC(=O)CC[C@@H](C)[C@H]1CC[C@H]2[C@@H]3CC[C@@H]4C[C@H](O)CC[C@]4(C)[C@H]3CC[C@]12C` [Compound 64] as the compound, how does the activity at 125 µM [5, 7] read?
**A.** 100%

**Q.** Which activity at 125 µM [5, 7] does the source give for `C[C@H](CCC(=O)Nc1ccccc1)[C@H]1CC[C@H]2[C@@H]3[C@@H](O)C[C@@H]4C[C@H](O)CC[C@]4(C)[C@H]3CC[C@]12C` [Compound 65] here?
**A.** 57 ± 0.8%

**Q.** Which activity at 125 µM [5, 7] does the source give for `COc1ccccc1NC(=O)CC[C@@H](C)[C@H]1CC[C@H]2[C@@H]3[C@@H](O)C[C@]4(C)C[C@H](O)CC[C@]4(C)[C@H]3CC[C@]12C` [Compound 66] here?
**A.** 100%

**Q.** With `C[C@H](CCC(=O)Nc1cccc(F)c1)[C@H]1CC[C@H]2[C@@H]3[C@@H](O)C[C@]4(C)C[C@H](O)CC[C@]4(C)[C@H]3CC[C@]12C` [Compound 67] as the compound, how does the activity at 125 µM [5, 7] read?
**A.** 100%

**Q.** Which activity at 125 µM [5, 7] does the source give for `Cc1ccc(F)cc1NC(=O)CC[C@@H](C)[C@H]1CC[C@H]2[C@@H]3[C@@H](O)C[C@@H]4C[C@H](O)CC[C@]4(C)[C@H]3CC[C@]12C` [Compound 68] here?
**A.** 100%

**Q.** With `C[C@H](CCC(=O)Nc1ccccc1)[C@H]1CC[C@H]2[C@@H]3CCC4CCCC[C@]4(C)[C@H]3CC[C@]12C` (stereo partly drawn) [N-(Phenyl)-cholan-24-amide] as the compound, how does the IC50 (C. difficile 630 strain [2]) read?
**A.** 270 µM

**Q.** What about the IC50 ([3]; R20291 strain, read-out: IC50 against R20291 strain) of the same compound?
**A.** 1800 nM

**Q.** Which Ki [1] does the source give for `C[C@H](CCC(=O)O)[C@H]1CC[C@H]2[C@@H]3[C@H](O)C[C@@H]4C[C@H](O)CC[C@]4(C)[C@H]3CC[C@]12C` [chenodeoxycholate] here?
**A.** 378 µM

**Q.** For `C[C@H](CCC(=O)Nc1cccc(S(=O)(=O)O)c1)[C@H]1CC[C@H]2[C@@H]3[C@H](O)C[C@@H]4C[C@H](O)CC[C@]4(C)[C@H]3CC[C@]12C` [chenodeoxycholic analog of CamSA], which “Potency relative to the cholate derivative CamSA (less potent)” value (C. difficile 630 strain [6]) is on record?
**A.** approximately 100 fold

**Q.** And the IC50 (C. difficile 630 strain [2])?
**A.** 6500 µM
